We go through 20 compounds from patent US12662491B2 (Redona Therapeutics, Inc., priority 2020, dated 2026).

The assay concerns the target T1, Zcchc11 enzyme (Homo sapiens, UniProt Q5TAX3).
T1 construct: made in house; host or cells: HEK293 cells (Zcchc11); E. coli Rosetta II (LIN28A)
T1 sequence (Q5TAX3 212-1420): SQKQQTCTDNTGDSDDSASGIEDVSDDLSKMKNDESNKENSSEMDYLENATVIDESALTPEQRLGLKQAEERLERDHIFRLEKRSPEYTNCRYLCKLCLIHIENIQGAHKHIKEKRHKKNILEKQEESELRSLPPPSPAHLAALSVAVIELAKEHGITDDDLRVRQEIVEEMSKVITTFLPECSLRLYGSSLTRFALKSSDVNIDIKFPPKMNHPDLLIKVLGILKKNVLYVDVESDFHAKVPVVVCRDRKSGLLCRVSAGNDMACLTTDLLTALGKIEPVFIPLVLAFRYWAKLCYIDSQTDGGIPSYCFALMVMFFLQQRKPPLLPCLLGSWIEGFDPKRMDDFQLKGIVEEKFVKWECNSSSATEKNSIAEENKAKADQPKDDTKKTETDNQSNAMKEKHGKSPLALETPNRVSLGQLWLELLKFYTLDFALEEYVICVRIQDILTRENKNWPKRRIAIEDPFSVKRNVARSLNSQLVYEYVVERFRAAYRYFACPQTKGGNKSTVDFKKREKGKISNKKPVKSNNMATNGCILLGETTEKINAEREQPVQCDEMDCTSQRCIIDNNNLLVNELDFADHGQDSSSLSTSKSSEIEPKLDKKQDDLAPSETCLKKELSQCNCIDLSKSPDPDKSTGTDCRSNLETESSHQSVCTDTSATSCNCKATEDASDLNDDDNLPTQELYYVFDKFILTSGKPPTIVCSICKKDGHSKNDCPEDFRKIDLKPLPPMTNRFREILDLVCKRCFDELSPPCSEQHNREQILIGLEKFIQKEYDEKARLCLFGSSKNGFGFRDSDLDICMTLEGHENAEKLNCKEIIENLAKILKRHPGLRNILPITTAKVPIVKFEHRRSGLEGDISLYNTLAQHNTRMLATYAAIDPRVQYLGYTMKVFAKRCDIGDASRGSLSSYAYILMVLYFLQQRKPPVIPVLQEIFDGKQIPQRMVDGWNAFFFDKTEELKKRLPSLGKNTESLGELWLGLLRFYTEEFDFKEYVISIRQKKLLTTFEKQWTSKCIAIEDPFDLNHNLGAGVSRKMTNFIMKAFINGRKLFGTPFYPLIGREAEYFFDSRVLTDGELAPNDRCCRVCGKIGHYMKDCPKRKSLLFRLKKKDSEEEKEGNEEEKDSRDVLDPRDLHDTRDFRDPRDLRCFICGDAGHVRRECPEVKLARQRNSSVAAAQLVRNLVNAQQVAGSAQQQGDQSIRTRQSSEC
The experiment in a line: TUTase assay (Zcchc11 assay, Lin28a-dependent polyuridylation of pre-let-7). The following applies: Lin28a-dependent Zcchc11 (Z11) TUTase assay; read-out: Potency Lin28a-dep Z11 IC50. Format: biochemical. In a few lines:
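Polyuridylation measured as fluorescein loss when a rhodamine-labelled A20 probe anneals to U-tails added to fluorescein pre-let-7 (2 nM). Reaction: truncated Zcchc11 0.2 nM, E. coli-made LIN28A 10 nM, UTP 5 uM, HEPES pH 7.3, room temperature. Initial rates fitted to four-parameter IC50.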

A value given as a limit tells only on which side of the number the result lay.

One may read the IC50 as the concentration that inhibits the measured activity by half. For the compound `O=C(O)c1cn(Cc2ccccc2)c2cc(N3CCC[C@@H]3COc3ncccc3Cl)c(Cl)cc2c1=O` [Example 556, (R)-1-benzyl-6-chloro-7-(2-(((3-chloropyridin-2-yl)oxy)methyl)pyrrolidin-1-yl)-4-oxo-1,4-dihydroquinoline-3-carboxylic acid], the IC50 lay within 1 to 10 µM.
`O=C(O)c1cn(Cc2cccnc2)c2cc(N3CCC[C@@H]3COc3ncccc3Cl)c(Cl)cc2c1=O` [Example 557, (R)-6-chloro-7-(2-(((3-chloropyridin-2-yl)oxy)methyl)pyrrolidin-1-yl)-4-oxo-1-(pyridin-3-ylmethyl)-1,4-dihydroquinoline-3-carboxylic acid]: the IC50 was ≤ 1 µM.
As to `COCCNc1ccc(-n2cc(C(=O)O)c(=O)c3cc(I)c(N4CCC[C@@H]4COc4ncccc4Cl)cc32)cn1` [Example 558, (R)-7-(2-(((3-chloropyridin-2-yl)oxy)methyl)pyrrolidin-1-yl)-6-iodo-1-(6-((2-methoxyethyl)amino)pyridin-3-yl)-4-oxo-1,4-dihydroquinoline-3-carboxylic acid], the IC50 was ≤ 1 µM.
As for `CN(C)C1CN(c2ccc(-n3cc(C(=O)O)c(=O)c4cc(C5CC5)c(N5CCC[C@@H]5COc5ncccc5Cl)cc43)cn2)C1` [Example 559, (R)-7-(2-(((3-chloropyridin-2-yl)oxy)methyl)pyrrolidin-1-yl)-6-cyclopropyl-1-(6-(3-(dimethylamino)azetidin-1-yl)pyridin-3-yl)-4-oxo-1,4-dihydroquinoline-3-carboxylic acid], the IC50 is ≤ 1 µM.
`O=C(O)c1cn(-c2ncc[nH]2)c2cc(N3CCC[C@@H]3COc3ncccc3Cl)c(Cl)cc2c1=O` [Example 560, (R)-6-chloro-7-(2-(((3-chloropyridin-2-yl)oxy)methyl)pyrrolidin-1-yl)-1-(1H-imidazol-2-yl)-4-oxo-1,4-dihydroquinoline-3-carboxylic acid]: the IC50 is ≤ 1 µM.
The value for `CN1CCn2nc(-n3cc(C(=O)O)c(=O)c4cc(C#N)c(N5CCC[C@@H]5COc5ncccc5Cl)cc43)cc2C1` [Example 561, (R)-7-(2-(((3-chloropyridin-2-yl)oxy)methyl)pyrrolidin-1-yl)-6-cyano-1-(5-methyl-4,5,6,7-tetrahydropyrazolo [1,5-a]pyrazin-2-yl)-4-oxo-1,4-dihydroquinoline-3-carboxylic acid] was ≤ 1 µM.
Take `CN(C)[C@H]1CCN(c2ccc(-n3cc(C(=O)O)c(=O)c4cc(C#N)c(N5CCC[C@@H]5COc5ncccc5Cl)cc43)cn2)C1` [Example 562, 7-((R)-2-(((3-chloropyridin-2-yl)oxy)methyl)pyrrolidin-1-yl)-6-cyano-1-(6-((S)-3-(dimethylamino)pyrrolidin-1-yl)pyridin-3-yl)-4-oxo-1,4-dihydroquinoline-3-carboxylic acid]: the IC50 is ≤ 1 µM.
For `CN(C)[C@@H]1CCN(c2ccc(-n3cc(C(=O)O)c(=O)c4cc(C#N)c(N5CCC[C@@H]5COc5ncccc5Cl)cc43)cn2)C1` [Example 563, 7-((R)-2-(((3-chloropyridin-2-yl)oxy)methyl)pyrrolidin-1-yl)-6-cyano-1-(6-((R)-3-(dimethylamino)pyrrolidin-1-yl)pyridin-3-yl)-4-oxo-1,4-dihydroquinoline-3-carboxylic acid], the IC50 was ≤ 1 µM.
The value for `CN(C)C1CN(c2cc(-n3cc(C(=O)O)c(=O)c4cc(Cl)c(N5CCC[C@@H]5COc5ccccn5)cc43)ccn2)C1` [Example 564, (R)-6-chloro-1-(2-(3-(dimethylamino)azetidin-1-yl)pyridin-4-yl)-4-oxo-7-(2-((pyridin-2-yloxy)methyl)pyrrolidin-1-yl)-1,4-dihydroquinoline-3-carboxylic acid] was ≤ 1 µM; that for `O=C(O)c1cn(-c2c[nH]cn2)c2cc(N3CCC[C@@H]3COc3ncccc3Cl)c(Cl)cc2c1=O` [Example 565, (R)-6-chloro-7-(2-(((3-chloropyridin-2-yl)oxy)methyl)pyrrolidin-1-yl)-1-(1H-imidazol-4-yl)-4-oxo-1,4-dihydroquinoline-3-carboxylic acid] was ≤ 1 µM.
In the case of `Cn1cnc(-n2cc(C(=O)O)c(=O)c3cc(Cl)c(N4CCC[C@@H]4COc4ncccc4Cl)cc32)c1` [Example 566, (R)-6-chloro-7-(2-(((3-chloropyridin-2-yl)oxy)methyl)pyrrolidin-1-yl)-1-(1-methyl-1H-imidazol-4-yl)-4-oxo-1,4-dihydroquinoline-3-carboxylic acid], the IC50 was ≤ 1 µM.
In the case of `Cn1cncc1-n1cc(C(=O)O)c(=O)c2cc(Cl)c(N3CCC[C@@H]3COc3ncccc3Cl)cc21` [Example 567, (R)-6-chloro-7-(2-(((3-chloropyridin-2-yl)oxy)methyl)pyrrolidin-1-yl)-1-(1-methyl-1H-imidazol-5-yl)-4-oxo-1,4-dihydroquinoline-3-carboxylic acid], the IC50 was ≤ 1 µM.
As to `Cn1ccnc1-n1cc(C(=O)O)c(=O)c2cc(Cl)c(N3CCC[C@@H]3COc3ncccc3Cl)cc21` [Example 568, (R)-6-chloro-7-(2-(((3-chloropyridin-2-yl)oxy)methyl)pyrrolidin-1-yl)-1-(1-methyl-1H-imidazol-2-yl)-4-oxo-1,4-dihydroquinoline-3-carboxylic acid], the IC50 is ≤ 1 µM.
As to `N#CCn1cc(C(=O)O)c(=O)c2cc(Cl)c(N3CCC[C@@H]3COc3ncccc3Cl)cc21` [Example 569, (R)-6-chloro-7-(2-(((3-chloropyridin-2-yl)oxy)methyl)pyrrolidin-1-yl)-1-(cyanomethyl)-4-oxo-1,4-dihydroquinoline-3-carboxylic acid], the IC50 was ≤ 1 µM.
As for `CN(C)CCNc1ccc(-n2cc(C(=O)O)c(=O)c3cc(C#N)c(N4CCC[C@@H]4COc4ncccc4Cl)cc32)cn1` [Example 570, (R)-7-(2-(((3-chloropyridin-2-yl)oxy)methyl)pyrrolidin-1-yl)-6-cyano-1-(6-((2-(dimethylamino)ethyl)amino)pyridin-3-yl)-4-oxo-1,4-dihydroquinoline-3-carboxylic acid], the figure is ≤ 1 µM; as for `N#Cc1cc2c(=O)c(C(=O)O)cn(-c3cnn(CCN4CCC4)c3)c2cc1N1CCC[C@@H]1COc1ncccc1Cl` [Example 571, (R)-1-(1-(2-(azetidin-1-yl)ethyl)-1H-pyrazol-4-yl)-7-(2-(((3-chloropyridin-2-yl)oxy)methyl)pyrrolidin-1-yl)-6-cyano-4-oxo-1,4-dihydroquinoline-3-carboxylic acid], ≤ 1 µM.
As for `CN(C)C1CN(c2ccc(-n3cc(C(=O)O)c(=O)c4cc(C#N)c(N5C[C@@H](F)C[C@@H]5COc5ncccc5Cl)cc43)cn2)C1` [Example 572, 7-((2R,4S)-2-(((3-chloropyridin-2-yl)oxy)methyl)-4-fluoropyrrolidin-1-yl)-6-cyano-1-(6-(3-(dimethylamino)azetidin-1-yl)pyridin-3-yl)-4-oxo-1,4-dihydroquinoline-3-carboxylic acid], the figure is ≤ 1 µM.
As for `Cn1cc(Cn2cc(C(=O)O)c(=O)c3cc(Cl)c(N4CCC[C@@H]4COc4ncccc4Cl)cc32)cn1` [Example 573, (R)-6-chloro-7-(2-(((3-chloropyridin-2-yl)oxy)methyl)pyrrolidin-1-yl)-1-((1-methyl-1H-pyrazol-4-yl)methyl)-4-oxo-1,4-dihydroquinoline-3-carboxylic acid], the figure is ≤ 1 µM; as for `NC(=O)Cn1cc(C(=O)O)c(=O)c2cc(F)c(N3CCC[C@@H]3COc3ccccn3)cc21` [Example 574, (R)-1-(2-amino-2-oxoethyl)-6-fluoro-4-oxo-7-(2-((pyridin-2-yloxy)methyl)pyrrolidin-1-yl)-1,4-dihydroquinoline-3-carboxylic acid], 1 to 10 µM; as for `CC(C)(O)c1ccc(-n2cc(C(=O)O)c(=O)c3cc(C#N)c(N4CCC[C@@H]4COc4ncccc4Cl)cc32)cn1` [Example 575, (R)-7-(2-(((3-chloropyridin-2-yl)oxy)methyl)pyrrolidin-1-yl)-6-cyano-1-(6-(2-hydroxypropan-2-yl)pyridin-3-yl)-4-oxo-1,4-dihydroquinoline-3-carboxylic acid], ≤ 1 µM.
